Assay results reported in patent US20220249528A1 (CELGENE CORPORATION, priority 2019, published 2022).
Peptide text beside a SMILES is read from it. * marks the point of attachment. Cbz = O=C(OCc1ccccc1)*; CH2F = FC*

Key:
[1] = system: MCL-1 in MV4-11 cells; assay: Western blot of MCL-1 degradation; format: cell-based; conditions: 20 μM Z-VAD-FMK 1 hour before 5-azacytidine for 16 hours, FIG. 13B
Procedure: Lysates were quantified using a bicinchoninic acid (BCA) kit (Piece/Thermo Fisher, Waltham, Mass.). 20 to 30 μg protein was resolved on a 4-12% SDS-PAGE gel, transferred to PVDF membranes (80V/90 minute by wet-transfer), and blocked with Oddysey TBS blocking buffer for 1 hour and then probed with appropriate primary antibodies overnight at 4° C. using dilution as recommended by manufacturer. Membranes were washed three times for a total of 30 minutes and then incubated with secondary antibodies at room temperature in the dark for 1 hour. After another three washes, Odyssey infrared imaging system and companion software (LI-COR biosciences, Lincoln, Nebr., USA) were used to scan immunoblot membranes and to quantify band intensity according to the manufacturer's instructions. The ratio of proteins of interest to loading control in treated samples was normalized to the corresponding ratio in untreated cells. Antibodies used for immunoblotting were purchased from the following sources: BCL-2 (sc-7382), MCL1-(sc-819) from Santa Cruz Biotechnology (Dallas, Tex., USA, Bim (2819), caspase-3 (9664) from Cell Signaling Technology; beta-Actin (A2228) from Sigma-Aldrich; DNMTI (ab188453) from AbCam; IRDye 680 goat anti-rabbit and IRDye 800 goat anti-mouse secondary antibodies (#925-68073 and #925-32212) were purchased from Li-COR Biosciences (Lincoln, Nebr.). […]

[2] = system: MCL-1 in KG1a cells; assay: Western blot of MCL-1 degradation; format: cell-based; conditions: FIG. 12A
Procedure: (§1) Lysates were quantified using a bicinchoninic acid (BCA) kit (Piece/Thermo Fisher, Waltham, Mass.). 20 to 30 μg protein was resolved on a 4-12% SDS-PAGE gel, transferred to PVDF membranes (80V/90 minute by wet-transfer), and blocked with Oddysey TBS blocking buffer for 1 hour and then probed with appropriate primary antibodies overnight at 4° C. using dilution as recommended by manufacturer. Membranes were washed three times for a total of 30 minutes and then incubated with secondary antibodies at room temperature in the dark for 1 hour. After another three washes, Odyssey infrared imaging system and companion software (LI-COR biosciences, Lincoln, Nebr., USA) were used to scan immunoblot membranes and to quantify band intensity according to the manufacturer's instructions. The ratio of proteins of interest to loading control in treated samples was normalized to the corresponding ratio in untreated cells.

[3] = system: MCL-1 in OCI-AML2 cells; assay: Western blot of MCL-1 degradation; format: cell-based; conditions: OCI-AML2, FIG. 12D
Procedure: as §1

[4] = system: MCL-1 in THP-1 cells; assay: Western blot of MCL-1 degradation; format: cell-based; conditions: THP-1, by 24 hours
Procedure: as §1

[5] = system: 22 AML cell lines; assay: Cell viability and 5-azacytidine-venetoclax synergy in AML cell line panel; format: cell-based; conditions: venetoclax-resistant lines Kasumi-1, Kasumi-2 and NOMO-1
[6] = system: MV4-11 cells; assay: RNASeq analysis, differential expression and KEGG pathways; format: cell-based
From the text: After treatment, cells were recovered, washed once in PBS, and flash frozen as cell pellets. Cell pellets were sent to Canopy Biosciences for RNA extraction and library preparation and sequencing. RNA was extracted using the Qiagen RNeasy Mini Kit according to manufacturer's instructions. A modified protocol was used to preserve miRNA species. […] MCL1 RNA levels in other cell lines were quantified by RNASeq using standard methods.
Libraries were multiplexed and sequenced using Illumina HiSeq. All gene counts were then imported into the R/Bioconductor package EdgeR and TMM normalization size factors were calculated to adjust for samples for differences in library size. Ribosomal genes and genes not expressed in the smallest group size minus one samples greater than one count-per-million were excluded from further analysis. Differential expression analysis was then performed to analyze for differences between conditions and the results were filtered for only those genes with Benjamini-Hochberg false-discovery rate adjusted p-values less than or equal to 0.05. Global perturbations in known Gene Ontology (GO) terms and KEGG pathways were detected using the R/Bioconductor package GAGE to test for changes in expression of the reported log 2 fold-changes reported by Limma in each term versus the background log 2 fold-changes of all genes found outside the respective term. The R/Bioconductor package heatmap and Pathview was used to display heatmaps or annotated KEGG graphs across groups of samples for each GO term or KEGG pathway (respectively) with a Benjamini-Hochberg false-discovery rate adjusted p-value less than or equal to 0.05. To find differentially expressed genes, the raw counts were variance stabilized with the R/Bioconductor package DESeq2.

[7] = system: MV4-11 xenograft model; assay: Disseminated AML xenograft survival study; format: in vivo, mice; conditions: 5-azacytidine LEED regimen 1 mg/kg qd×5×3, alone or with venetoclax or midostaurin 100 mg/kg qd×21; vehicle 29.5
Procedure: LEED models oral administration of AZA, while HELD models intravenous or subcutaneous administration of AZA.
The animals were fed ad libitum water (reverse osmosis, 1 ppm Cl), and NIH 31 Modified and Irradiated Lab Diet® consisting of 18.0% crude protein, 5.0% crude fat, and 5.0% crude fiber. […] (68-72° F.) and 40-60% humidity.
On each day of dosing, an appropriate amount of gilteritinib was dissolved in 0.5% methylcellulose in DI water to yield a dosing solution at 0.4 mg/mL. Each week, an appropriate amount of venetoclax was dissolved in 10% ethanol:30% PEG400:60% phosal 50 propylene glycol to yield a dosing solution at 10 mg/mL. […]
Animals were monitored individually for an endpoint of moribundity due to progression of the leukemia. […] The time to endpoint (TTE), in days, was recorded for each mouse that died of its disease or was euthanized due to extensive tumor progression. […] The median TTE value was calculated for each group. The median TTE of treated mice was expressed as a percentage of the median TTE of the control mice (% T/C), and the increase in life span (ILS) was calculated as: ILS=% T/C−100%, where T=median TTE treated, and C=median TTE control. […]
Animals were weighed daily on Days 1-5, then twice per week until the completion of the study. […] Group mean body weight loss also was monitored as per protocol. […] Survival was analyzed by the Kaplan-Meier method, based on TTE values.

[8] = system: ATF3 and SCD mRNA in MV4-11 cells; assay: Real-time PCR validation of ATF3 and SCD expression; format: cell-based; conditions: for ATF3 expression: FIG. 14C; for SCD expression: 24 hours, FIG. 14D
Procedure: At this time, cells were recovered and RNA was extracted using Qiagen RNeasy kit according to manufacturer's instructions. Reverse transcription was performed using SuperScript VILO cDNA synthesis kit. Validated Taqman probes and Taqman Fast Advanced Master Mix was used with Viia 7 Real-Time PCR System (Invitrogen/ThermoFisher Scientific, Waltham, Mass.) to quantify transcripts of ATF3, SCD, and 18S mRNA.

[9] = 1 μM 5-azacytidine vs PBS, 24 h

SMILES	effect on MCL-1 degradation by 5-azacytidine [1]	start of MCL-1 degradation after treatment [2] [h]	MCL-1 degradation [3]	extent of MCL-1 degradation [4]	effect of co-treatment on venetoclax resistance [5]	Mean logFC, KEGG pathway Metabolic pathways [6, 9]	Mean logFC, KEGG pathway Taste transduction [6, 9]	ATF3 expression increase ([6]; RNAseq, 48 hours after 5-azacytidine treatment)	median survival [7]	ATF3 expression ([8]; 0.3 μM, 24 or 48 hours)	SCD expression ([8]; 3 μM)	ATF3 expression ([8]; 0.3, 1 or 3 μM, 24 and 48 hours)	SCD expression ([8]; low concentrations)
COC(=O)C[C@H](NC(=O)[C@H](C)NC(=O)[C@@H](NC(=O)OCc1ccccc1)C(C)C)C(=O)CF [Z-VAD-FMK] (Cbz-Val-Ala-Asp(OMe)-CH2F)	partially ablated												
Nc1ncn([C@@H]2O[C@H](CO)[C@@H](O)[C@H]2O)c(=O)n1 [5-azacytidine, 4-amino−1-B-D-ribofuranosyl-1,3,5-triazin-2(1H)-one]		6	did not lead to any degradation of MCL-1	incomplete degradation by 24 hours	reversal of venetoclax resistance	−5.29	2.44	two-fold	35	not sufficient to induce ATF3 expression	decreased rapidly within 24 hours	increased in a time- and concentration-dependent manner	not affected
